Legend:
Assay type in all cases: cell-based, human
[1] = tested on: TNBC cells (MDA-MB-231, MDA-MB-436, MDA-MB-468, MDA-MB-157, HCC1937, BT-20); assay: Alamar blue viability assay, TNBC cell lines with or without OPG-Fc; details: 7 days
Procedure: (§1) Cells were seeded in 96 well-plates (2-5×10^4 cells/mL), with or without paclitaxel (Y0000698, Sigma), doxorubicin hydrochloride (D2975000, Sigma), palbociclib (PD 0332991 isethionate, PZ0199, Sigma), ribociclib (LEE011 succinate, SC-488174, Santa Cruz), abemaciclib mesylate (LY2835219, S7158, Selleckchem), fulvestrant (S1191, Selleckchem), everolimus (#73122, StemCell Technologies), full length human OPG (SRP3132, Sigma), and OPG-Fc (Amgen). Medium was replaced every 2 days. After 7 days, 1:10 Alamar blue (Invitrogen) was added to each well and fluorescence was measured 2 hours after incubation (excitation 560 nm; emission 590 nm) in an Infinite M200 microplate reader (Tecan).
Medium was replaced every two days, and viability was assessed by Alamar blue assay.
(§2) Cells were seeded in 96 well-plates (2-5×10^4 cells/mL), with or without palbociclib (PD 0332991 isethionate, PZ0199, Sigma), ribociclib (LEE011 succinate, SC-488174, Santa Cruz), abemaciclib mesylate (LY2835219, S7158, Selleckchem), 3-ATA (sc-202414, Santa Cruz), Cdk4 inhibitor Ill (sc-202988, Santa Cruz), seliciclib (S1153, Selleckchem), and OPG-Fc (PL-33324, Amgen). Medium was replaced every 2 days. After 7 days, 1:10 Alamar blue (Invitrogen) was added to each well and fluorescence was measured 2 hours after incubation (excitation 560 nm; emission 590 nm) in an Infinite M200 microplate reader (Tecan).

[2] = tested on: RANK OE cells (MCF-7^OE, T47D^OE) and parental MCF-7, T47D cells; assay: Alamar blue viability assay, RANK OE luminal breast cancer cells vs parental counterparts; details: for sensitivity of RANK OE cells to the drug (cell viability): RANK OE cells vs parental counterparts, drug alone
Procedure: as §1
In particular, RANK OE cells were tested for responsiveness to hormone therapy. Briefly, RANK OE cells were seeded in multi-well plates and exposed to fulvestrant for 7 days.
In this assay, however, RANK OE cells were exposed to a CDK 4/6 inhibitor alone or in combination with an inhibitor of the RANK pathway, in order to test the effect of blocking the RANK pathway in this context. Briefly, RANK OE cells were seeded in multi-well plates and exposed to palbociclib, ribociclib or abemaciclib alone or in combination with OPG-Fc for 7 days. Osteoprotegrin (OPG) is the physiologic soluble decoy receptor for RANK ligand (RANKL), and OPG-Fc is a fusion protein comprising only the four cysteine-rich domains of OPG (D1 to D4) fused with the Fc domain of an IgG1 antibody.
In this study, the CDK4/6 inhibitors palbociclib and ribociclib were exposed to RANK OE cells in combination with fulvestrant or everolimus. This combination therapy was then tested alone or in combination with OPG, an inhibitor of the RANK pathway. In this assay, the full-length OPG protein was used, in contrast to the previous example utilizing OPG-Fc.
To address this question, cell growth in the presence or absence of a CDK4 inhibitor was quantified. Briefly, cells were seeded in 96-well plates and exposed to two different drugs, CDK4 inhibitors, 3-ATA (FIG. 20A) or Cdk4 inhibitor Ill (FIG. 20B) for seven days. Medium was replaced every two days, and viability was assessed by Alamar blue assay. FIG. 20A provides the cell growth quantification in the presence of the CDK4 inhibitor 3-ATA and FIG. 20B provides the cell growth quantification in the presence of another CDK4 inhibitor, Cdk4 Inhibitor Ill. The results are the mean of at least three independent assays, with 4 replicates per assay, and presented as the mean±SEM. p-value was calculated using 2-way ANOVA, *p<0.05, **p<0.01, ***p<0.001.
To answer this question, cell growth in the presence of the pan-CDK inhibitor seliciclib (also known as roscovitine or CYC202) was analyzed. Briefly, cells were seeded in 96-well plates and exposed to different drugs for seven days. Medium was replaced every two days, and viability was assessed by Alamar blue assay.
as §2

MDA-MB-231 TNBC cells = assay: Alamar blue viability assay, MDA-MB-231 TNBC cells with or without RANK knockdown; details: 7 days
Procedure: For lentiviral transduction, MDA-MB-231GFP+Luc+ cells were seeded in 24-well plates, at a density of 4×10^4 cells/well. 24 hours after seeding, medium was replaced by fresh medium containing 8 μg/ml Polybrene (Sigma) and RANK shRNA (h) lentiviral particles (15-20 μl/well; sc-42960-V, Santa Cruz) or control shRNA lentiviral particles (15-20 μl/well; sc-108080, Santa Cruz). Cells were selected with 0.5 μg/mL Puromycin dihydrochloride (Sigma) starting three days after transduction.
as §1
RANK KD clones were first generated for use in sensitivity assays. Briefly, MCF-7GFP+Luc+ cells were seeded in multi-well plates and then exposed to fresh medium comprising RANK shRNA (h) lentiviral particles or control shRNA lentiviral particles. The transduced cells were selected using Puromycin dihydrochloride starting three days post-transduction.

For `CCN1CCN(Cc2ccc(Nc3ncc(F)c(-c4cc(F)c5nc(C)n(C(C)C)c5c4)n3)nc2)CC1` [abemaciclib], the “sensitivity of TNBC cells to CDK4/6 inhibitor (cell viability)” value [1] was “resistance” and the “sensitivity of RANK OE cells to the drug (cell viability)” value ([2]; 7 days) was “decreased sensitivity”.

With `CN(C)C(=O)c1cc2cnc(Nc3ccc(N4CCNCC4)cn3)nc2n1C1CCCC1` [ribociclib] the “sensitivity to CDK4/6 inhibitor (cell viability)” value (MDA-MB-231 TNBC cells; MDA-231 cells and MDA-231 shControl cells) was “resistance”, the “sensitivity to CDK4/6 inhibitor (cell viability)” value (MDA-MB-231 TNBC cells; TNBC RANK KD cells (MDA-231 shRANK) vs RANK expressing cells) was “restored sensitivity” and the “sensitivity of TNBC cells to CDK4/6 inhibitor (cell viability)” value [1] was “resistance”. The “sensitivity of RANK OE cells to the drug (cell viability)” value ([2]; 7 days) was “decreased sensitivity”.

With `Nc1ccc2c(=S)c3ccccc3[nH]c2c1` [3-ATA, 3-Amino-9-thio(10H)-acridone] the “sensitivity of RANK OE cells to the drug (cell viability)” value ([2]; 7 days) was “resistant” and the “resistance of RANK OE cells to doses above 2.5 μM” value ([2]; RANK OE cells, 7 days) was “resistant to even higher doses”.

With `CC[C@H](CO)Nc1nc(NCc2ccccc2)c2ncn(C(C)C)c2n1` [seliciclib] the “sensitivity of RANK OE cells to pan-CDK inhibitor” value ([2]; RANK OE cells vs parental (RANK low) cells, 7 days) was “less sensitive” and the “enhancement of the effect of palbociclib, or palbociclib plus OPG-Fc” value ([2]; RANK OE cells, 7 days) was “did not enhance”.

For `Cc1ccc(NC2=CC(=O)c3sc(C)nc3C2=O)cc1` [Cdk4 inhibitor Ill, 5-(N-(4-Methylphenyl)amino)-2-methyl-4,7-dioxobenzothiazole], the “sensitivity of RANK OE cells to the drug (cell viability)” value ([2]; 7 days) was “resistant”.

For `C[C@]12CC[C@@H]3c4ccc(O)cc4C[C@@H](CCCCCCCCC[S+]([O-])CCCC(F)(F)C(F)(F)F)[C@H]3[C@@H]1CC[C@@H]2O` (stereo partly shown) [fulvestrant], the “sensitivity of RANK OE cells to the drug (cell viability)” value ([2]; 7 days) was “decreased sensitivity”.

B1: OPG: full-length OPG protein, soluble decoy receptor for RANK ligand (protein, UniProt O00300 1-401, looked up)
chain: MNNLLCCALVFLDISIKWTTQETFPPKYLHYDEETSHQLLCDKCPPGTYLKQHCTAKWKTVCAPCPDHYYTDSWHTSDECLYCSPVCKELQYVKQECNRTHNRVCECKEGRYLEIEFCLKHRSCPPGFGVVQAGTPERNTVCKRCPDGFFSNETSSKAPCRKHTNCSVFGLLLTQKGNATHDNICSGNSESTQKCGIDVTLCEEAFFRFAVPTKFTPNWLSVLVDNLPGTKVNAESVERIKRQHSSQEQTFQLLKLWKHQNKDQDIVKKIIQDIDLCENSVQRHIGHANLTFEQLRSLMESLPGKKVGAEDIEKTIKACKPSDQILKLLSLWRIKNGDQDTLKGLMHALKHSKTYHFPKTVTQSLKKTIRFLHSFTMYKLYQKLFLEMIGNQVQSVKISCL
modifications: full-length
notes: full-length OPG protein, soluble decoy receptor for RANK ligand
With B1 the “sensitivity of RANK OE cells to CDK4/6 inhibitor combination therapy when further combined with OPG” value ([2]; full-length OPG added to palbociclib or ribociclib plus fulvestrant or everolimus) was “restored”.

— patent US20220195059A1, “Rank Pathway Inhibitors in Combination with CDK Inhibitors” (INSTITUTO DE MEDICINA MOLECULAR JOÃO LOBO ANTUNES, priority 2019, published 2022)
